Consider 15 compounds from patent publication US20250235543A1, “MODIFIED PROTEINS AND PROTEIN DEGRADERS” (Cullgen (Shanghai), Inc., priority 2021, published 2025).

The structures appear in SMILES notation. Read-outs that look alike come from different tables or passages of the source.

One experiment has as its system cyclin D1. The experiment is described as follows: Cyclin D1 percentage degradation in Calu-1 cells (immunoblotting). To be noted: 200 nM, 16 hours. In kind it is cell-based. The method in brief:
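Cells were rinsed once in cold PBS and lysed in cold RIPA buffer containing protease and phosphatase inhibitors, with gentle agitation at 4° C. for 30 min. Lysates were spun at 13,000 rpm for 10 min at 4° C., protein was measured by BCA, and samples were boiled in Laemmli buffer at 99° C. for 5 min before SDS-PAGE immunoblotting.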
In general terms: In western blotting, separated proteins are transferred to a membrane and probed.

Another experiment addresses T1, CDK4 (Homo sapiens, UniProt P11802).
T1 construct: endogenous in cells; host or cells: Calu-1
The experiment is described as follows: CDK4 percentage degradation in Calu-1 cells (immunoblotting). In kind it is cell-based. The conditions noted are these: read-out: CDK4 Degradation (200 nM). The method in brief: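 Cultured cells were rinsed once in cold PBS and lysed in cold RIPA buffer containing protease and phosphatase inhibitors, with gentle agitation at 4° C. for 30 min. Lysates were centrifuged at 13,000 rpm for 10 min at 4° C., and protein was quantified by BCA. Samples were then separated by SDS-PAGE, detected with ECL, and the CDK4 bands quantified in Image Lab.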

T1 sequence (P11802 2-303 limits assumed): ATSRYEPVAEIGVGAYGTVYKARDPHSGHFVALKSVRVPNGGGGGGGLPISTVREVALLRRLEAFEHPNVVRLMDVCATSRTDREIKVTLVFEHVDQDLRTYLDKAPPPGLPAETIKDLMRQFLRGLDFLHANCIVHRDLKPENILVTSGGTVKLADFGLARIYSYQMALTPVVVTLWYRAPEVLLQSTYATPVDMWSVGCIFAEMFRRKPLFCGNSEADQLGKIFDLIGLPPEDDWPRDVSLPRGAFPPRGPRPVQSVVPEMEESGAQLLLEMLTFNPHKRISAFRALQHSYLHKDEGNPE
T1 sequence (P24385 whole entry partner): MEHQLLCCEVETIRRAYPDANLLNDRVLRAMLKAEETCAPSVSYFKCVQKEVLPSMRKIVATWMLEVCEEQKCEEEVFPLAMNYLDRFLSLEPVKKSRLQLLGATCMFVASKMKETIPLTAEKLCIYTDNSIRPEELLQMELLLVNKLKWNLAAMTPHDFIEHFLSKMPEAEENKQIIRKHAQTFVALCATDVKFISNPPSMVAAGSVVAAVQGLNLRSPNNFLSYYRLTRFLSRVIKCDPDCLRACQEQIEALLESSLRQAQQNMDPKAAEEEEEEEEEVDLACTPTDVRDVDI
T1 sequence (Q16531 2-1140 limits assumed, further chain): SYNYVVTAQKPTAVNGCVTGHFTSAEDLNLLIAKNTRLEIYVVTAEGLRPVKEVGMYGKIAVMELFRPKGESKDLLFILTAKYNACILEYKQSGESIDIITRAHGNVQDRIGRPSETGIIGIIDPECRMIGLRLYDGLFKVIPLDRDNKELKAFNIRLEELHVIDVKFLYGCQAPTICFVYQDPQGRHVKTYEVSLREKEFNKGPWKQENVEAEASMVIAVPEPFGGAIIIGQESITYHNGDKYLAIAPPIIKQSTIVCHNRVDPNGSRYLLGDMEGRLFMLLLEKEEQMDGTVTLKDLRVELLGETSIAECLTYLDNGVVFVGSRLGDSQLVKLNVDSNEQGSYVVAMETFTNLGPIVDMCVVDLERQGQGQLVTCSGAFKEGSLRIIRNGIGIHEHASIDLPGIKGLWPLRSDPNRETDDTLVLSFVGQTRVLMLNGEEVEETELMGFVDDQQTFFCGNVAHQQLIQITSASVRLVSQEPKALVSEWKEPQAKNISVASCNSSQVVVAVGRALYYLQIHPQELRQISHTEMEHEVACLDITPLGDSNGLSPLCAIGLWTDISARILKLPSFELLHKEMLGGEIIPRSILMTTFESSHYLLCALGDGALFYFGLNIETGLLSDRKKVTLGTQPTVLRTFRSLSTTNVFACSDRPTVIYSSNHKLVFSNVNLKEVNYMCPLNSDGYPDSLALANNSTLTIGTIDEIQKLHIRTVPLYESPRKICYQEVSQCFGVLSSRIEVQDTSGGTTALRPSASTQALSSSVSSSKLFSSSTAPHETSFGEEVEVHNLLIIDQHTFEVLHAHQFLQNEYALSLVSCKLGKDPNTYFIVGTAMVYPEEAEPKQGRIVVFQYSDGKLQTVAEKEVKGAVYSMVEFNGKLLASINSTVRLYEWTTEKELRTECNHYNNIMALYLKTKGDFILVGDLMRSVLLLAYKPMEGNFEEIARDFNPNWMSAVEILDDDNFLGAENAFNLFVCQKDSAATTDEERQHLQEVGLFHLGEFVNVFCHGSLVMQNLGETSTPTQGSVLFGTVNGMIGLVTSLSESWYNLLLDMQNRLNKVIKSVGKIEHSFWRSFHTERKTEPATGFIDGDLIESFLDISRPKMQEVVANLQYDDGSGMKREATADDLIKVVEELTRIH

On to `CC(=O)c1c(C)c2cnc(Nc3ccc(N4CCN(C(=O)CCOCCOCCNc5cccc(C(=O)Nc6nc(C)c(C)s6)c5C)CC4)cn3)nc2n(C2CCCC2)c1=O` [CPD-121, 3-((2-(2-(3-(4-(6-((6-Acetyl-8-cyclopentyl-5-methyl-7-oxo-7,8-dihydropyrido[2,3-d]pyrimidin-2-yl)amino)pyridin-3-yl)piperazin-1-yl)-3-oxopropoxy)ethoxy)ethyl)amino)-N-(4,5-dimethylthiazol-2-yl)-2-methylbenzamide], for which the “CyclinD1 Degradation (200 nM)” value in the experiment on cyclin D1 is “C (protein percentage degradation <50%, and >=30%)”. Besides, the inhibition at 0.2 µM on CDK4 (Calu-1 cells, 200 nM, 16 hours) is 30 to 50%.
For `CC(=O)c1c(C)c2cnc(Nc3ccc(N4CCN(C(=O)CCOCCOCCOCCNc5cccc(C(=O)Nc6nc(C)c(C)s6)c5C)CC4)cn3)nc2n(C2CCCC2)c1=O` [CPD-122, 3-((2-(2-(2-(3-(4-(6-((6-Acetyl-8-cyclopentyl-5-methyl-7-oxo-7,8-dihydropyrido[2,3-d]pyrimidin-2-yl)amino)pyridin-3-yl)piperazin-1-yl)-3-oxopropoxy)ethoxy)ethoxy)ethyl)amino)-N-(4,5-dimethylthiazol-2-yl)-2-methylbenzamide], the “CyclinD1 Degradation (200 nM)” value with cyclin D1 is reported as “A (protein percentage degradation >=80%)”. Besides, the inhibition at 0.2 µM at CDK4 (Calu-1, 16 h) fell in the range of 50 to 80%.
With `CC(=O)c1c(C)c2cnc(Nc3ccc(N4CCN(C(=O)CCOCCOCCOCCOCCNc5cccc(C(=O)Nc6nc(C)c(C)s6)c5C)CC4)cn3)nc2n(C2CCCC2)c1=O` [CPD-123, 3-((15-(4-(6-((6-Acetyl-8-cyclopentyl-5-methyl-7-oxo-7,8-dihydropyrido[2,3-d]pyrimidin-2-yl)amino)pyridin-3-yl)piperazin-1-yl)-15-oxo-3,6,9,12-tetraoxapentadecyl)amino)-N-(4,5-dimethylthiazol-2-yl)-2-methylbenzamide], the “CyclinD1 Degradation (200 nM)” value with cyclin D1 is on record as “A (protein percentage degradation >=80%)”. The inhibition at 0.2 µM on CDK4 (Calu-1, 16 h) lay within 50 to 80%.
The like results for `CC(=O)c1c(C)c2cnc(Nc3ccc(N4CCN(C(=O)CNc5cccc(C(=O)Nc6nc(C)c(C)s6)c5C)CC4)cn3)nc2n(C2CCCC2)c1=O` [CPD-124, 3-((2-(4-(6-((6-Acetyl-8-cyclopentyl-5-methyl-7-oxo-7,8-dihydropyrido[2,3-d]pyrimidin-2-yl)amino)pyridin-3-yl)piperazin-1-yl)-2-oxoethyl)amino)-N-(4,5-dimethylthiazol-2-yl)-2-methylbenzamide] were, in that order, “D (protein percentage degradation <30%)” and below 30%.
The like results for `CC(=O)c1c(C)c2cnc(Nc3ccc(N4CCN(C(=O)CCCCCCCNc5cccc(C(=O)Nc6nc(C)c(C)s6)c5C)CC4)cn3)nc2n(C2CCCC2)c1=O` [CPD-125, 3-((8-(4-(6-((6-Acetyl-8-cyclopentyl-5-methyl-7-oxo-7,8-dihydropyrido[2,3-d]pyrimidin-2-yl)amino)pyridin-3-yl)piperazin-1-yl)-8-oxooctyl)amino)-N-(4,5-dimethylthiazol-2-yl)-2-methylbenzamide] were, in that order, “D (protein percentage degradation <30%)” and below 30%.
Turning to `CC(=O)c1c(C)c2cnc(Nc3ccc(N4CCN(C(=O)CCOCCOCCOCCOCCOCCNc5cccc(C(=O)Nc6nc(C)c(C)s6)c5C)CC4)cn3)nc2n(C2CCCC2)c1=O` [CPD-126, 3-((18-(4-(6-((6-Acetyl-8-cyclopentyl-5-methyl-7-oxo-7,8-dihydropyrido[2,3-d]pyrimidin-2-yl)amino)pyridin-3-yl)piperazin-1-yl)-18-oxo-3,6,9,12,15-pentaoxaoctadecyl)amino)-N-(4,5-dimethylthiazol-2-yl)-2-methylbenzamide], the “CyclinD1 Degradation (200 nM)” value in the experiment on cyclin D1 was “B (protein percentage degradation <80%, and >=50%)”. In addition, the inhibition at 0.2 µM on CDK4 (Calu-1, 16 h) was 50 to 80%.
Consider `CC(=O)c1c(C)c2cnc(Nc3ccc(N4CCN(CC(=O)NCCOCCOCCOCCNc5ccc(C)c(C(=O)Nc6nc(C)c(C)s6)c5)CC4)cn3)nc2n(C2CCCC2)c1=O` [CPD-127, 5-((1-(4-(6-((6-Acetyl-8-cyclopentyl-5-methyl-7-oxo-7,8-dihydropyrido[2,3-d]pyrimidin-2-yl)amino)pyridin-3-yl)piperazin-1-yl)-2-oxo-6,9,12-trioxa-3-azatetradecan-14-yl)amino)-N-(4,5-dimethylthiazol-2-yl)-2-methylbenzamide], for which, in the experiment on cyclin D1, the “CyclinD1 Degradation (200 nM)” value was “C (protein percentage degradation <50%, and >=30%)”. At CDK4 (Calu-1, 16 h), the inhibition at 0.2 µM is 30 to 50%.
For the compound `CC(=O)c1c(C)c2cnc(Nc3ccc(N4CCN(C(=O)CCOCCOCCC(=O)Nc5ccccc5C(=O)Nc5nc(C)c(C)s5)CC4)cn3)nc2n(C2CCCC2)c1=O` [CPD-128, 2-(3-(2-(3-(4-(6-((6-Acetyl-8-cyclopentyl-5-methyl-7-oxo-7,8-dihydropyrido[2,3-d]pyrimidin-2-yl)amino)pyridin-3-yl)piperazin-1-yl)-3-oxopropoxy)ethoxy)propanamido)-N-(4,5-dimethylthiazol-2-yl)benzamide], in the experiment on cyclin D1, the “CyclinD1 Degradation (200 nM)” value is “C (protein percentage degradation <50%, and >=30%)”. The inhibition at 0.2 µM at CDK4 (Calu-1, 16 h) lay within 50 to 80%.
For the compound `CC(=O)c1c(C)c2cnc(Nc3ccc(N4CCN(C(=O)CCCCCNc5ccc(C)c(C(=O)Nc6nc(C)c(C)s6)c5)CC4)cn3)nc2n(C2CCCC2)c1=O` [CPD-129, 5-((6-(4-(6-((6-Acetyl-8-cyclopentyl-5-methyl-7-oxo-7,8-dihydropyrido[2,3-d]pyrimidin-2-yl)amino)pyridin-3-yl)piperazin-1-yl)-6-oxohexyl)amino)-N-(4,5-dimethylthiazol-2-yl)-2-methylbenzamide], in the experiment on cyclin D1, the “CyclinD1 Degradation (200 nM)” value was “D (protein percentage degradation <30%)”. For the same compound, the inhibition at 0.2 µM at CDK4 (Calu-1, 16 h) was below 30%.
For `CC(=O)c1c(C)c2cnc(Nc3ccc(N4CCN(C(=O)CCOCCOCCNc5ccc(C)c(C(=O)Nc6nc(C)c(C)s6)c5)CC4)cn3)nc2n(C2CCCC2)c1=O` [CPD-130, 5-((2-(2-(3-(4-(6-((6-Acetyl-8-cyclopentyl-5-methyl-7-oxo-7,8-dihydropyrido[2,3-d]pyrimidin-2-yl)amino)pyridin-3-yl)piperazin-1-yl)-3-oxopropoxy)ethoxy)ethyl)amino)-N-(4,5-dimethylthiazol-2-yl)-2-methylbenzamide] the same measures were “D (protein percentage degradation <30%)” and below 30%.
Consider `CC(=O)c1c(C)c2cnc(Nc3ccc(N4CCN(C(=O)CCOCCOCCOCCOCCOCCOCCNc5ccc(C)c(C(=O)Nc6nc(C)c(C)s6)c5)CC4)cn3)nc2n(C2CCCC2)c1=O` [CPD-131, 5-((21-(4-(6-((6-Acetyl-8-cyclopentyl-5-methyl-7-oxo-7,8-dihydropyrido[2,3-d]pyrimidin-2-yl)amino)pyridin-3-yl)piperazin-1-yl)-21-oxo-3,6,9,12,15,18-hexaoxahenicosyl)amino)-N-(4,5-dimethylthiazol-2-yl)-2-methylbenzamide], for which, in the experiment on cyclin D1, the “CyclinD1 Degradation (200 nM)” value was “D (protein percentage degradation <30%)”. Also, the inhibition at 0.2 µM on CDK4 (Calu-1, 16 h) is below 30%.
On to `CC(=O)c1c(C)c2cnc(Nc3ccc(N4CCN(CC(=O)NCCOCCOCCOCCOCCOCCOCCNc5ccc(C)c(C(=O)Nc6nc(C)c(C)s6)c5)CC4)cn3)nc2n(C2CCCC2)c1=O` [CPD-132, 5-((1-(4-(6-((6-Acetyl-8-cyclopentyl-5-methyl-7-oxo-7,8-dihydropyrido[2,3-d]pyrimidin-2-yl)amino)pyridin-3-yl)piperazin-1-yl)-2-oxo-6,9,12,15,18,21-hexaoxa-3-azatricosan-23-yl)amino)-N-(4,5-dimethylthiazol-2-yl)-2-methylbenzamide], for which the “CyclinD1 Degradation (200 nM)” value with cyclin D1 is given as “A (protein percentage degradation >=80%)”. Also, the inhibition at 0.2 µM on CDK4 (Calu-1 cells, 200 nM, 16 hours) is above 80%.
With `CC(=O)c1c(C)c2cnc(Nc3ccc(N4CCN(C(=O)CCOCCOCCOCCOCCOCCOCCNc5cccc(C(=O)Nc6nc(C)c(C)s6)c5C)CC4)cn3)nc2n(C2CCCC2)c1=O` [CPD-133, 3-((21-(4-(6-((6-Acetyl-8-cyclopentyl-5-methyl-7-oxo-7,8-dihydropyrido[2,3-d]pyrimidin-2-yl)amino)pyridin-3-yl)piperazin-1-yl)-21-oxo-3,6,9,12,15,18-hexaoxahenicosyl)amino)-N-(4,5-dimethylthiazol-2-yl)-2-methylbenzamide], the “CyclinD1 Degradation (200 nM)” value in the experiment on cyclin D1 was “A (protein percentage degradation >=80%)”. Besides, the inhibition at 0.2 µM on CDK4 (Calu-1, 16 h) was in the range of 50 to 80%.
The like results for `CC(=O)c1c(C)c2cnc(Nc3ccc(N4CCN(C(=O)CCOCCOCCOCCOCCOCCNc5ccc(C)c(C(=O)Nc6nc(C)c(C)s6)c5)CC4)cn3)nc2n(C2CCCC2)c1=O` [CPD-134, 5-((18-(4-(6-((6-Acetyl-8-cyclopentyl-5-methyl-7-oxo-7,8-dihydropyrido[2,3-d]pyrimidin-2-yl)amino)pyridin-3-yl)piperazin-1-yl)-18-oxo-3,6,9,12,15-pentaoxaoctadecyl)amino)-N-(4,5-dimethylthiazol-2-yl)-2-methylbenzamide] were, in that order, “D (protein percentage degradation <30%)” and below 30%.
Regarding `CC(=O)c1c(C)c2cnc(Nc3ccc(N4CCN(C(=O)CNc5ccc(C)c(C(=O)Nc6nc(C)c(C)s6)c5)CC4)cn3)nc2n(C2CCCC2)c1=O` [CPD-135, 5-((2-(4-(6-((6-Acetyl-8-cyclopentyl-5-methyl-7-oxo-7,8-dihydropyrido[2,3-d]pyrimidin-2-yl)amino)pyridin-3-yl)piperazin-1-yl)-2-oxoethyl)amino)-N-(4,5-dimethylthiazol-2-yl)-2-methylbenzamide], the “CyclinD1 Degradation (200 nM)” value in the experiment with cyclin D1 is on record as “D (protein percentage degradation <30%)”. Further, on CDK4 (Calu-1, 16 h), the inhibition at 0.2 µM is below 30%.
